Data from patent US20240041838A1, “METHODS AND COMPOSITIONS FOR INHIBITION OF NEUTROPHIL RECRUITMENT IN MYCOCARDIAL ISCHEMIA-REPERFUSION INJURY” (University of Connecticut, priority 2022, published 2024).

Experiments:
[1] = tested on: mouse myocardial I/R injury; test: infarct size (TTC-phthalo-blue staining) and left ventricle echocardiogram in mouse myocardial I/R injury; type: in vivo
Description: Mice were subjected to 35 minutes of myocardial ischemia and 1 (for multi-photon microscopy and flow cytometry) or 22-26 (for TTC-phthalo-blue staining) hours of reperfusion. […] Briefly, anesthesia was induced with an intraperitoneal injection of ketamine hydrochloride (125 mg·kg^−1) and xylazine (12.5 mg·kg^−1). Mice were intubated with 24G×3/4″ Surflo i.v. catheter and ventilated using MiniVent 845 (Harvard Apparatus).
Surgeries were performed under an SMZ168 Stereo Zoom microscope (Motic). Ischemia was achieved by ligating the left anterior descending coronary artery (LAD) using a 6-0 silk suture with a section of PE-10 tubing placed over the LAD, 1 mm from the tip of the normally positioned left atrium. One important problem in drug administration is water solubility, which greatly affects drug absorption and bioavailability. […] In clinics, the primary percutaneous coronary intervention aims to be performed less than 90 min (within 60 min is preferable) after the patient arrives. […] After occlusion for 35 minutes, reperfusion was initiated by releasing the ligature and removing the PE-10 tubing. The chest wall was closed, the animal extubated, and body temperature was maintained by use of a 37° C. warm pad. Hearts were harvested 1 or 22-26 hours later. The loosened suture was left in place and then retied for the purpose of evaluating the ischemic area. […]
To assess the ischemic area at risk after 22-26 hours of reperfusion, hearts were excised, infused with PBS and freshly prepared 10% phthalo-blue (PBS with 0.75% tween 20) through the aorta and coronary arteries in a retrograde fashion, frozen at −20° C. for 10 minutes, and sliced into five to six 1 mm cross-sections with the aid of a pre-freeze acrylic matrix (ZIVIC Labs). […] The infarct area (white), the area at risk (red and white), and the total left ventricle area from each section were measured using ZEN v3.1 (Zeiss). Ratios of infarct area/area at risk (FIG. 5B) and of area at risk/left ventricle (FIG. 5C) were calculated and expressed as percentages.
To quantify left ventricle function, we performed echocardiograms on mice before and seven days after myocardial I/R injury. […] Echocardiography loops were recorded in B and two-dimensional-targeted M modes in longitudinal and short-axis views on a Vevo 3100 High-Resolution Imaging System equipped with an MX550D transducer (VisualSonics, Toronto, ON, Canada). Mice were fixed on a heated table and heart rate was monitored during the procedure. […] Left ventricular ejection fraction was determined by left ventricle tracing relating the end-systolic left ventricle area as the minimal left ventricle cross-sectional area to the end-diastolic left ventricle area as the maximum left ventricle cross-sectional area in long-axis views. […]

[2] = tested on: Rac-1 activation in human neutrophils; test: Rac-1-GTP pull-down and western blot in human neutrophils; type: cell-based; conditions: 10 μM, RT 1 hour, IL-8 1 μg·mL^−1, increase about 60% without drug
human neutrophils [3] = conditions: 30 mins GM-CSF and fMLP; pretreatment; cited from earlier work
[4] = tested on: IL-8-induced Ca^2+ signal in neutrophils; test: intracellular Ca2+ flux by Fluo-4 time-resolved flow cytometry; type: cell-based, human; conditions: 10 μM, RT 1 hour; 1 μg·mL^−1 IL-8
Description: To monitor the dynamics of intracellular calcium (Ca^2+) flux, neutrophils (2×10^6 cells·mL^−1 in RPMI-1640 without phenol red plus 2% HSA) were incubated with Fluo-4 (4 μg·mL^−1) for one hour at RT. After washes, neutrophils were resuspended in RPMI-1640 without phenol red plus 2% HSA and assessed by an LSRII analyzer (BD Biosciences, San Jose, CA). One minute after analyzing, 1 μg·mL^−1 IL-8 was added to the cells. Cells were put back into the analyzer for another 9 minutes. The curves showing the dynamics of intracellular Ca^2+ flux (FIG. 2H) were generated by FlowJo software (version 10.6). The quantification of Fluo-4 MFI (FIG. 2I) was analyzed by FlowJo software (version 10.6) and obtained from three individual experiments.

human neutrophils [5] = test: total ROS production of isolated human neutrophils after PMA; type: cell-based; conditions: 10 μM; after 50 min of 100 nM PMA; ICAM-1-coated wells
Description: ROS production of isolated human neutrophils was quantified by using the Total ROS Assay kit from Invitrogen. A black, clear bottom, non-treated 96-well plate was used in this assay. Before the assay, the 96-well plate was coated with 10 μg·mL^−1 human ICAM-1-Fc at RT for 2 hours and washed twice with PBS. […] After centrifuging at 300×g, RT for 2 min, cells were resuspended at 10^6 cells·mL^−1 in the ROS Assay Stain Solution from the kit and incubated with 2 μg·mL^−1 mouse anti-human CD18 blocking mAb (TS1/18 to block neutrophil adhesion) or isotype control at RT for 10 min. The 100 μL·well^−1 neutrophils (3 replicates per group) were seeded into the ICAM-1-coated 96-well plate. The background ROS before stimulation was measured by Cytation 1 Cell Imaging Multi-Mode Reader (Filter set: Green, Ex: 485/20 nm, Em: 528/20 nm, BioTek, Santa Clara, CA). Then 100 nM PMA was added to each well, and ROS production was measured by Cytation 1 Cell Imaging Multi-Mode Reader every 5 minutes.

human neutrophils [6] = test: neutrophil viability by flow cytometry (Ghost Dye Blue 516); type: cell-based; conditions: 100 μM Nexinhib20, one hour at room temperature
Description: After washes, neutrophils were incubated with Ghost Dye Blue 516 at RT for 15 minutes. After washes, cell fluorescence was assessed with an LSRII (BD Biosciences, San Jose, CA) and analyzed with FlowJo software (version 10.6).

Structure (SMILES): CC(C)(C)C(=O)/C(=C\c1cccc([N+](=O)[O-])c1)n1cncn1 [Nexinhib20, 4,4-dimethyl-1-(3-nitrophenyl)-2-(1H-1,2,4-triazol-1-yl)-1-penten-3-one]
- infarct area percentage (infarct area/area at risk) ([1]; I/R 35 min/24 hours, i.p. 30 minutes before reperfusion, vehicle about 50%): about 40%
- change of ejection fraction after myocardial I/R injury ([1]; echocardiogram before and 7 days after I/R, vehicle reduced by about 25%): no significant reduction
- change of fractional shortening after myocardial I/R injury ([1]; echocardiogram before and 7 days after I/R, vehicle reduced by about 30%): no significant reduction
- reduction of infarct size ([1]; mouse myocardial I/R injury): about 20%
- IL-8-induced increase of Rac-1-GTP [2]: eliminated these increases
- CD11b upregulation (human neutrophils [3]): diminished
- IL-8-induced Ca^2+ signal (Fluo-4) [4]: potently blocked
- total ROS production (human neutrophils [5]): significantly reduced
- neutrophil viability (human neutrophils [6]): ~100%
